Data taken from article PMC10644327, “A randomized, double‐blind phase 1b study evaluating the safety, tolerability, pharmacokinetics and pharmacodynamics of the NLRP3 inhibitor selnoflast in patients with moderate to severe active ulcerative colitis” (Clinical and Translational Medicine, 2023).
Converted amounts (≈) assume the structure as drawn. Where two headings read alike, the source gives them in different places.

What was measured:
[1] = tested on: IL‐1β release in whole blood; assay: Inhibition of IL‐1β release in whole blood upon ex vivo stimulation with LPS (TruCulture), UC patients; parameters: species or system human; details: for Inhibition of IL‐1β release compared to baseline: 450 mg
Protocol: (§1) Blood samples were drawn pre‐dose and at various timepoints and placed in TruCulture whole blood collection and culture tubes that were pre‐filled with lipopolysaccharide (LPS) (final working concentration of 100 ng/mL LPS after addition of 1 mL of blood to the LPS‐containing Truculture tubes). Following 24 h incubation, TruCulture supernatants were collected, stored, and levels of secreted IL‐1β were subsequently measured in order to understand how these responded to NLRP3 inhibition by selnoflast. The levels of IL‐1β were also quantified in plasma K2EDTA samples using the same SIMOA IL‐1β Assay Kit (Quanterix). The quantitative range of the method was 0.196 to 490 pg/mL for plasma and 4.01 to 1470 pg/mL in Truculture supernatants. Plasma samples were also assessed for IL‐18, using a commercial SIMOA IL‐18 Assay Kit (Quanterix; the quantitative range for plasma was 0.0200–45.0 pg/mL).

[2] = parameters: method as in Investigator Brochure; details: ref Investigator Brochure, cited from earlier work
[3] = tested on: NLRC4; parameters: method as in unpublished results; details: ref unpublished results; cited from earlier work
[4] = tested on: sigmoid colon tissue; assay: Histology of sigmoid colon biopsies (Geboes score, Nancy index, neutrophils); type: in vivo, human
Protocol: (§2) Tissue biopsies from the sigmoid colon were obtained before start of treatment (up to Day −3) and at the end of treatment (Day 7). For operational reasons, biopsies were taken 2−4.5 h post‐dose on Day 7. Stool samples were obtained at screening, before start of treatment, throughout the study, and at the 14‐day follow‐up visit. Levels of calprotectin were determined in stool samples. Sigmoid colon tissue was processed for RNA and DNA extraction as well as for single‐cell analysis, subsequent transcriptomic analysis, and identification of PD biomarkers. Sigmoid colon tissue samples were also processed for histology (hematoxylin and eosin staining, immunohistochemistry, fluorescence in situ hybridization) in order to characterize the cell types present (i.e., neutrophils and inflammatory monocytes). Histological analysis was performed on sigmoid colon tissue samples (from baseline and Day 7) using the disease‐specific histological indices Geboes score[23] and Nancy index.[24] Caspase‐1 (pro and active form) was assessed using a validated WES‐assay (manuscript in preparation).

[5] = tested on: Caspase‐1; assay: Caspase‐1 (pro and active form) WES‐assay in sigmoid colon tissue; type: in vivo, human; details: after 7 days’ treatment
Protocol: as §2

[6] = tested on: IL‐18; assay: Plasma IL‐18 (SIMOA) in UC patients; type: in vivo, human; details: 450 mg QD, 7 days
Protocol: as §1

[7] = tested on: Breast Cancer Resistance Protein (BCRP); parameters: method as in Investigator Brochure; details: in vitro studies; ref Investigator Brochure; cited from earlier work
[8] = tested on: IL‐1β; assay: IL‐1β IC90 calculated from in vitro studies; type: cell-based; details: estimated
[9] = tested on: IL‐1 gene signature (CXCL1, CXCL2, CXCL3, CXCL5, CXCL6, CCL2, IL6, TNFAIP6); assay: IL‐1 gene signature in sigmoid colon tissue by qPCR; type: in vivo, human; details: mean [± SD], selnoflast arm, median log2FC of 8 genes
Protocol: A predefined IL‐1 gene signature comprising eight genes (i.e., CXCL1, CXCL2, CXCL3, CXCL5, CXCL6, CCL2, IL6, TNFAIP6) relevant in the context of IBD was assessed in RNA extracted from the sigmoid colon tissue. The signature had been determined by combining gene expression data that met the following criteria: (1) overlapping expression profiles (upregulation by IL‐1β stimulation) in multiple cell types,[25] (2) differential expression in relevant cell types across published and proprietary single‐cell RNA‐sequencing (scRNA‐seq) datasets involving IBD patients and controls[26] and (3) co‐expression with the IL1R1 receptor and differential colonic gene expression between UC patients and healthy individuals. The 8‐gene panel was then assessed by quantitative PCR (qPCR) before and after treatment (baseline and Day 7), normalized to a set of housekeeping genes (B2M, GusB, HPRT1, MRLP19) and log2 fold changes (log2FC) from baseline were reported per gene as well as across the eight genes (median log2FC = gene signature).

[10] = tested on: calprotectin; assay: Stool calprotectin in UC patients; type: in vivo, human; details: Day 7, mean (± SD), selnoflast arm; results called uninterpretable (8/19 baseline samples not per protocol)
Protocol: as §2

[11] = tested on: AIM2; parameters: method as in unpublished results; details: ref unpublished results; cited from earlier work
[12] = tested on: cells isolated from the sigmoid colon; assay: Single‐cell RNA sequencing of sigmoid colon tissue; type: in vivo, human; details: pseudobulk method, baseline and Day 7
Protocol: Single cell suspensions were obtained from cryopreserved sigmoid colon tissue samples through mechanical and enzymatic dissociation, and loaded onto a 10X chromium controller for cell partitioning. Single‐cell RNA‐sequencing libraries were prepared using 10X genomics NextGEM single‐cell 3′ version 3.1 reagents and sequenced on an Illumina NovaSeq 6000 sequencer. Quality control, data filtering, and data analysis was performed with the BESCA software (version 2.5.1)[27] and the RiBIOS software suite, as well as using custom scripts in both R (version 4.2.0) and Python (version 3.8).

[13] = cited from earlier work
[14] = tested on: NLRP3 inflammasome; parameters: method as in RO7486967 Investigator Brochure; details: ref RO7486967 Investigator Brochure; cited from earlier work
[15] = parameters: method as in Investigator Brochure; details: ref Investigator Brochure, cited from earlier work; remark: listed apart in the source

With `CCN1CCC(S(=O)(=O)NC(=O)Nc2c3c(cc4c2CCC4)CCC3)CC1` [Selnoflast, selnoflast] the “Inhibition of IL‐1β release compared to baseline” value ([1]; Day 1, from 30 min until at least 10 h post‐dose, mean (± SD)) was greater than 95%, the inhibition at 450 mg ([1]; Homo sapiens, at trough (25–100 h post‐dose), 450 mg QD, read-out: Inhibition of IL‐1β release compared to baseline) was roughly 90% and the “Inhibition of IL‐1β release compared to baseline” value ([1]; just before the next administration on Day 2, mean (SD)) was 91.2%. For the same compound, the Signs of hepatotoxicity ([2]; 39-week GLP study, monkey) was “no signs of hepatotoxicity”, the “Bacterial, viral, fungal, and other opportunistic infections” value ([2]; monkeys, nonclinical toxicology studies) was “No evidence” and the “Inhibitory activity on NLRC4 inflammasome” value [3] was “no inhibitory activity”. For the same compound, the “Geboes score and Nancy index, difference between study arms” value ([4]; baseline and Day 7) was “No notable differences”, the “Neutrophils in sigmoid colon tissue, change from baseline” value ([4]; mean (± SD), active treatment arm, Day 7) was −13.23 (± 140.76) cells/mm^2 and the “Patients with marked reduction from baseline in neutrophils in sigmoid colon tissue” value ([4]; selnoflast‐treated patients, Day 7) was “Three out of the 13”. For the same compound, the “Caspase‐1 (pro‐ and active forms) change” value [5] was “did not show marked changes”, the “Change in plasma IL‐18 levels upon treatment” value [6] was “no significant changes” and the BCRP substrate status [7] was “potential substrate”. The “IL‐1β IC90 (tissue)” value [8] was 1.94 µg/g, the IC90 ([8]; read-out: IL‐1β IC90 (plasma)) was 2 µg/mL (≈ 5.11 µM) and the “IL‐1 gene signature, log2FC from baseline to Day 7” value [9] was −1.14 [± 1.8] log2FC. The “Stool calprotectin change from baseline” value [10] was “+4146.6 (± 12321.12) μg/g”, the “Inhibitory activity on AIM2 inflammasome” value [11] was “no inhibitory activity” and the “Cellular composition and gene expression, difference between treatment arms” value [12] was “No significant differences”. For the same compound, the “Dose dependence of systemic exposure” value ([13]; healthy subjects, 20 to 600 mg, ref unpublished results, IZD334‐001) was “approximately dose‐proportional”, the “Median Tmax” value ([13]; healthy subjects, single administration, 20 to 600 mg, fasted, ref unpublished results, IZD334‐001) was 30 to 360 min and the “Steady‐state achieved” value ([13]; healthy subjects, ref unpublished results, IZD334‐001) was “Day 2”. The “Change in exposure on repeat dosing” value ([13]; healthy volunteers, repeat dosing for 7 days, ref study IZD334-001) was “no indication of a change”, the half-life ([13]; healthy volunteers, ref study IZD334-001) was “approximately 7 hours” and the “Effect on IL-1β release and cell death in vitro” value [14] was “inhibit IL-1β release and cell death in vitro”. The Signs of hepatotoxicity ([15]; 26-week GLP study, rat) was “no signs of hepatotoxicity” and the “Bacterial, viral, fungal, and other opportunistic infections” value ([15]; rats, nonclinical toxicology studies) was “No evidence”.
